Where two headings read alike, the source gives them in different places.
Tests used:
recombinant His-CHK1 = target: T1, recombinant His-CHK1 (Homo sapiens, UniProt O14757); experiment: CHK1 SPA Assay; type: biochemical; conditions: read-out: CHK-1 IC50
T1 construct: His-CHK1, In House Lot P976, MW ˜30 KDa, stored at −80 °C; fused on or other part: His tag
T1 sequence (O14757 1-265 limits assumed): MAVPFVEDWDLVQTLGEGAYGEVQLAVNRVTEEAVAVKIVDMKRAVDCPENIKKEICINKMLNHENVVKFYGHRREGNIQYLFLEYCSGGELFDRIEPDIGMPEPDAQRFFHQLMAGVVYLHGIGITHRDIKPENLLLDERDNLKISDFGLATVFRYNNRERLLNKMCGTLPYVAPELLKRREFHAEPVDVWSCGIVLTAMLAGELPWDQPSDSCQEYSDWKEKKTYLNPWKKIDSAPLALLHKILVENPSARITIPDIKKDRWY
Description: An in vitro assay was developed that utilizes recombinant His-CHK1 expressed in the baculovirus expression system as an enzyme source and a biotinylated peptide based on CDC25C as substrate (biotin-[…]).
1) CDC25C Ser 216 C-term Biotinylated peptide substrate (25 mg), stored at −20 °C, Custom Synthesis by Research Genetics: biotin-[…] 2595.4 MW
2) His-CHK1 In House lot P976, 235 ug/mL, stored at −80 °C.
1) Kinase Buffer: 50 mM Tris pH 8.0; 10 mM MgCl2; 1 mM DTT
2) His-CHK1, In House Lot P976, MW ˜30 KDa, stored at −80 °C. […] For 1 plate (100 r×n): dilute 8 μL of 235 μg/mL (7.83 uM) stock in 2 mL Kinase Buffer. This makes a 31 nM mixture. Add 20 μL/well. This makes a final reaction concentration of 6 nM.
3) CDC25C Biotinylated peptide.
Dilute CDC25C to 1 mg/mL (385 uM) stock and store at −20° C. For 1 plate (100 r×n): dilute 10 1L of 1 mg/mL peptide stock in 2 ml Kinase Buffer. This gives a 1.925 μM mix. Add 20 1L/r×n. This makes a final reaction concentration of 385 nM.
For 1 plate (100 r×n): dilute 10 μL of 1 mM ATP (cold) stock and 2 uL fresh P33-ATP (20 μCi) in 5 ml Kinase Buffer. This gives a 2 μM ATP (cold) solution; add 50 μl/well to start the reaction. Final volume is 100 μl/r×n so the final reaction concentrations will be 1 μM ATP (cold) and 0.2 uCi/r×n.
For 1 plate add: To 10 mL Wash Buffer 2 (2M NaCl 1% H3PO4): 1 mL SPA bead slurry (50 mg); Add 100 μL/well
6) Wash buffer 1: 2 M NaCl
7) Wash buffer 2: 2 M NaCl, 1% H3PO4
Dispense 10 μl/r×n to appropriate wells. Add 10 μL 10% DMSO to positive (CHK1+CDC25C+ATP) and negative (CHK1+ATP only) control wells. 2) Thaw enzyme on ice—dilute enzyme to proper concentration in kinase buffer (see Reaction Mixtures) and dispense 20 μl to each well. 3) Thaw the Biotinylated substrate on ice and dilute in kinase buffer (see Reaction Mixtures). Add 20 μL/well except to negative control wells. Instead, add 20 uL Kinase Buffer to these wells. 4) Dilute ATP (cold) and P33-ATP in kinase buffer (see Reaction Mixtures). Add 50 μL/well to start the reaction. 5) Allow the reaction to run for 2 hours at room temperature. 6) Stop reaction by adding 100 uL of the SPA beads/stop solution (see Reaction Mixtures) and leave to incubate for 15 minutes before harvest 7) Place a blank Packard GF/B filter plate into the vacuum filter device (Packard plate harvester) and aspirate […] water through to wet the system. 8) Take out the blank and put in the Packard GF/B filter plate. 9) Aspirate the reaction through the filter plate. 10) Wash: 200 ml each wash; 1× with 2M NaCl; 1× with 2M NaCl/1% H3PO4 11) Allow filter plate to dry 15 min. 12) Put TopSeal-A adhesive on top of filter plate. 13) Run filter plate in Top Count
Settings: • Data mode: CPM • Radio nuclide: Manual SPA:P33 • Scintillator: Liq/plast • Energy Range: Low
(§1) IC50 DETERMINATIONS: Dose-response curves were plotted from inhibition data generated, each in duplicate, from 8 point serial dilutions of inhibitory compounds. Concentration of compound was plotted against % kinase activity, calculated by CPM of treated samples divided by CPM of untreated samples. To generate IC50 values, the dose-response curves were then fitted to a standard sigmoidal curve and IC50 values were derived by nonlinear regression analysis.

Cyclin E/CDK2 = target: T2, Cyclin E/CDK2 (Homo sapiens, UniProt P24941); experiment: CDK2 Assay (Cyclin E/CDK2 in vitro kinase assay); type: biochemical
T2 construct: made in house; host or cells: SF9 cells (baculovirus co-infection)
Excerpt: BACULOVIRUS CONSTRUCTIONS: Cyclin E was cloned into pVL1393 (Pharmingen, La Jolla, Calif.) by PCR, with the addition of 5 histidine residues at the amino-terminal end to allow purification on nickel resin. The expressed protein was approximately 45 kDa. CDK2 was cloned into pVL1393 by PCR, with the addition of a haemaglutinin epitope tag at the carboxy-terminal end (YDVPDYAS). The expressed protein was approximately 34 kDa in size.
ENZYME PRODUCTION: Recombinant baculoviruses expressing cyclin E and CDK2 were co-infected into SF9 cells at an equal multiplicity of infection (MOI=5), for 48 hrs. Cells were harvested by centrifugation at 1000 RPM for 10 minutes, then pellets lysed on ice for 30 minutes in five times the pellet volume of lysis buffer containing 50 mM Tris pH 8.0, 1 50 mM NaCl, 1% NP40, 1 mM DTT and protease inhibitors (Roche Diagnostics GmbH, Mannheim, Germany). Lysates were spun down at 15000 RPM for 10 minutes and the supernatant retained. 5 ml of nickel beads (for one liter of SF9 cells) were washed three times in lysis buffer (Qiagen GmbH, Germany). Imidazole was added to the baculovirus supernatant to a final concentration of 20 mM, then incubated with the nickel beads for 45 minutes at 4° C. Proteins were eluted with lysis buffer containing 250 mM imidazole. Eluate was dialyzed overnight in 2 liters of kinase buffer containing 50 mM Tris pH 8.0, 1 mM DTT, 10 mM MgCl2, 100 uM sodium orthovanadate and 20% glycerol. Enzyme was stored in aliquots at −70° C.
IN VITRO KINASE ASSAY: Cyclin E/CDK2 kinase assays were performed in low protein binding 96-well plates (Corning Inc, Corning, N.Y.). Enzyme was diluted to a final concentration of 50 μg/ml in kinase buffer containing 50 mM Tris pH 8.0, 10 mM MgCl2, 1 mM DTT, and 0.1 mM sodium orthovanadate. The substrate used in these reactions was a biotinylated peptide derived from Histone H1 (from Amersham, UK). The substrate was thawed on ice and diluted to 2 μM in kinase buffer. Compounds were diluted in 10% DMSO to desirable concentrations. For each kinase reaction, 20 μl of the 50 µg/ml enzyme solution (1 μg of enzyme) and 20 μl of the 2 μM substrate solution were mixed, then combined with 10 μl of diluted compound in each well for testing. The kinase reaction was started by addition of 50 μl of 2 μM ATP and 0.1 μCi of 33P-ATP (from Amersham, UK). The reaction was allowed to run for 1 hour at room temperature. The reaction was stopped by adding 200 μl of stop buffer containing 0.1% Triton X-100, 1 mM ATP, 5 mM EDTA, and 5 mg/ml streptavidine coated SPA beads (from Amersham, UK) for 15 minutes. The SPA beads were then captured onto a 96-well GF/B filter plate (Packard/Perkin Elmer Life Sciences) using a Filtermate universal harvester (Packard/Perkin Elmer Life Sciences.). Non-specific signals were eliminated by washing the beads twice with 2M NaCl then twice with 2 M NaCl with 1% phosphoric acid. The radioactive signal was then measured using a TopCount 96 well liquid scintillation counter (from Packard/Perkin Elmer Life Sciences).
as §1

Row | Compound | IC50 (recombinant His-CHK1) [nM] | IC50 (Cyclin E/CDK2; read-out: CDK2 IC50) [nM] | IC50 (Cyclin E/CDK2; CDK2 IC50) [nM]
1 | Cc1cc(Nc2nc(C3=CCCNC3)cn3c(-c4cnn(C)c4)cnc23)sc1S(=O)(=O)N(C)C1CC1 | 18 | 13100 | 
2 | Cn1cc(-c2cnc3c(Nc4ccc(-n5ccnc5)cc4)nc(C4=CCCNC4)cn23)cn1 [drawing 1440] | 97 | 12500 | 
3 | Cc1cc(Nc2nc(C3=CCCNC3)cn3c(-c4cnn(C)c4)cnc23)sc1S(=O)(=O)NC1CC1 [drawing 1473] | 7 | 3210 | 
4 | CCNC(=O)c1sc(Nc2nc(CCN)cn3c(-c4cnn(C)c4)cnc23)cc1C | 15 | 41300 | 
5 | Cc1cc(Nc2nc(C3=CCCNC3)cn3c(-c4cnn(C)c4)cnc23)sc1C(=O)NC1CCN(S(C)(=O)=O)CC1 | 24 | 41000 | 
6 | Cn1cc(-c2cnc3c(Nc4sncc4C(C)(C)C)nc(C4=CCCNC4)cn23)cn1 | 16 | 13700 | 
7 | Cn1cc(-c2cnc3c(Nc4sncc4C4CCN(S(C)(=O)=O)C4)nc(CCCN)cn23)cn1 (centres unmarked) | 8 |  | 
8 | CC(C)c1cnsc1Nc1nc(CCN)cn2c(-c3cnn(C)c3)cnc12 | 6380 | 13 | 
9 | Cc1cc(Nc2nc(C3=CCCNC3)cn3c(-c4cnn(C)c4)cnc23)sc1S(C)(=O)=O | 8 | 11600 | 
10 | Cc1cc(Nc2nc(C3=CCCNC3)cn3c(-c4cnn(C)c4)cnc23)sc1S(=O)(=O)NCC1CC1 | 8 | 2140 | 
11 | Cc1cc(Nc2nc(C3=CCCNC3)cn3c(-c4cnn(C)c4)cnc23)sc1S(=O)(=O)N1CCCC1 | 6 | 5170 | 
12 | CNCCCc1cn2c(-c3cnn(C)c3)cnc2c(Nc2sncc2C)n1 | 8 | 5770 | 
13 | CNCCc1cn2c(-c3cnn(C)c3)cnc2c(Nc2cc(C)ns2)n1 | 13 | 11400 | 
14 | Cn1cc(-c2cnc3c(Nc4sncc4C(C)(C)C)nc(CCN)cn23)cn1 | 11 | 14100 | 
15 | Cn1cc(-c2cnc3c(Nc4ccc(-n5ccnc5)cc4)nc(C4=CCNCC4)cn23)cn1 | 181 |  | 19400
16 | Cc1cc(Nc2nc(SC3CCNC3)cn3c(-c4cnn(C)c4)cnc23)sn1 (centres unmarked) | 19 |  | 
17 | Cc1cc(Nc2nc(C3=CCCNC3)cn3c(-c4cnn(C)c4)cnc23)sn1 | 14 | 11000 | 
18 | Cn1cc(-c2cnc3c(Nc4sncc4C4CCCNC4)nccn23)cn1 (centres unmarked) | 18 | 21800 | 
19 | Cc1cc(Nc2nc(CCN)cn3c(-c4cnn(C)c4)cnc23)sc1S(=O)(=O)N(C)C | 14 |  | 
